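Values below derive from 48-hour exposures of cells grown in 96-well plates, with endpoints linearly interpolated between the two concentrations bracketing the appropriate inhibition level. TGI is the concentration that stops growth completely.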
Legend:
Experiment in all cases: growth of human tumour cells (NCI), 48 h
DU-145 prostate = tested on: DU-145 prostate
RXF 393 renal = tested on: RXF 393 renal
MCF7 breast = tested on: MCF7 breast
ACHN renal = tested on: ACHN renal
MDA-N = tested on: MDA-N
HS 578T breast = tested on: HS 578T breast
EKVX NSCLC = tested on: EKVX NSCLC
NCI-H460 lung = tested on: NCI-H460 lung
M14 melanoma = tested on: M14 melanoma
SNB-19 CNS = tested on: SNB-19 CNS
BT-549 breast = tested on: BT-549 breast
SNB-75 CNS = tested on: SNB-75 CNS
NCI-H522 lung = tested on: NCI-H522 lung
LOX IMVI melanoma = tested on: LOX IMVI melanoma
HOP-92 NSCLC = tested on: HOP-92 NSCLC
NCI-H23 lung = tested on: NCI-H23 lung
IGROV1 ovarian = tested on: IGROV1 ovarian
SF-295 CNS = tested on: SF-295 CNS
KM12 colon = tested on: KM12 colon
OVCAR-3 ovarian = tested on: OVCAR-3 ovarian
SK-MEL-2 melanoma = tested on: SK-MEL-2 melanoma
K-562 leukemia = tested on: K-562 leukemia
HCT-15 colon = tested on: HCT-15 colon
SF-268 CNS = tested on: SF-268 CNS
NCI/ADR-RES ovarian = tested on: NCI/ADR-RES ovarian
COLO 205 colon = tested on: COLO 205 colon
HL-60(TB) leukemia = tested on: HL-60(TB) leukemia
A498 renal = tested on: A498 renal
RPMI-8226 leukemia = tested on: RPMI-8226 leukemia
SK-OV-3 ovarian = tested on: SK-OV-3 ovarian
UACC-62 melanoma = tested on: UACC-62 melanoma
OVCAR-4 ovarian = tested on: OVCAR-4 ovarian
SK-MEL-28 melanoma = tested on: SK-MEL-28 melanoma
OVCAR-8 ovarian = tested on: OVCAR-8 ovarian
HT29 colon = tested on: HT29 colon
SK-MEL-5 melanoma = tested on: SK-MEL-5 melanoma
SW-620 colon = tested on: SW-620 colon
MDA-MB-231 breast = tested on: MDA-MB-231 breast
MOLT-4 leukemia = tested on: MOLT-4 leukemia
U251 CNS = tested on: U251 CNS
786-0 renal = tested on: 786-0 renal
OVCAR-5 ovarian = tested on: OVCAR-5 ovarian
TK-10 renal = tested on: TK-10 renal
HCT-116 colon = tested on: HCT-116 colon
MDA-MB-435 = tested on: MDA-MB-435
T-47D breast = tested on: T-47D breast
CCRF-CEM leukemia = tested on: CCRF-CEM leukemia
MALME-3M melanoma = tested on: MALME-3M melanoma
UO-31 renal = tested on: UO-31 renal
PC-3 prostate = tested on: PC-3 prostate
SF-539 CNS = tested on: SF-539 CNS
A549 NSCLC = tested on: A549 NSCLC
CAKI-1 renal = tested on: CAKI-1 renal
HOP-62 NSCLC = tested on: HOP-62 NSCLC
UACC-257 melanoma = tested on: UACC-257 melanoma
SR leukemia = tested on: SR leukemia
NCI-H226 lung = tested on: NCI-H226 lung
SN12C renal = tested on: SN12C renal
HCC-2998 colon = tested on: HCC-2998 colon

Measured: TGI

CCN1CC2(C)CCC(OC)C34C5CC6CCC(O)(C5C(=O)O6)C(C(O)C23)C14 (stereo not drawn)
not listed: SR leukemia | NCI-H226 lung | SN12C renal | HCC-2998 colon
> 100 µM: all other assays above

COC1CC(C)(NC(=O)C(F)(F)F)C2OC(c3ccccc3)OCC2O1 (stereo not drawn)
not listed: SK-MEL-2 melanoma | HCC-2998 colon
> 100 µM: all other assays above

COc1nc(Cl)nc(N[C@H](C)c2c3ccccc3cc3ccccc23)n1
29.2 µM: MCF7 breast
24.8 µM: HCT-116 colon
23.5 µM: OVCAR-3 ovarian
28.1 µM: COLO 205 colon
28.8 µM: SW-620 colon
19.5 µM: SK-MEL-5 melanoma
33.8 µM: SF-539 CNS
30.2 µM: UACC-257 melanoma
8.99 µM: MDA-N
27 µM: HCT-15 colon
29.3 µM: SK-OV-3 ovarian
96.2 µM: A549 NSCLC
21.1 µM: RPMI-8226 leukemia
39.7 µM: SF-268 CNS
13.8 µM: UACC-62 melanoma
10.2 µM: SK-MEL-28 melanoma
26.9 µM: KM12 colon
97.8 µM: K-562 leukemia
29.6 µM: EKVX NSCLC | CCRF-CEM leukemia
28.4 µM: OVCAR-8 ovarian
15.1 µM: MDA-MB-435
13.7 µM: OVCAR-4 ovarian
9.08 µM: T-47D breast
14.8 µM: TK-10 renal
33.2 µM: LOX IMVI melanoma
21.9 µM: HS 578T breast
20.5 µM: IGROV1 ovarian
21.3 µM: NCI-H522 lung
32.5 µM: BT-549 breast
31.5 µM: PC-3 prostate | HOP-62 NSCLC
40.1 µM: MOLT-4 leukemia
33.9 µM: NCI-H460 lung
46.4 µM: HOP-92 NSCLC
25.9 µM: RXF 393 renal | CAKI-1 renal
31.9 µM: U251 CNS
31 µM: SF-295 CNS
58.8 µM: HL-60(TB) leukemia
31.6 µM: SK-MEL-2 melanoma | NCI-H226 lung
31.7 µM: ACHN renal
31.3 µM: NCI/ADR-RES ovarian | HT29 colon
76.4 µM: SNB-75 CNS
17.8 µM: SN12C renal
31.1 µM: SNB-19 CNS | OVCAR-5 ovarian
34.4 µM: MDA-MB-231 breast
25 µM: DU-145 prostate
31.8 µM: NCI-H23 lung | UO-31 renal

O=[N+]([O-])c1ccc(-n2nc3ccc4nonc4c3n2)cc1
65 µM: HOP-92 NSCLC
56.5 µM: SK-OV-3 ovarian
63.7 µM: BT-549 breast
73.7 µM: CAKI-1 renal
89.4 µM: 786-0 renal
39.9 µM: TK-10 renal
30.8 µM: SNB-75 CNS
89.2 µM: MALME-3M melanoma
65.3 µM: NCI-H226 lung
47 µM: OVCAR-4 ovarian
87.9 µM: SF-295 CNS
44.7 µM: HOP-62 NSCLC
62.9 µM: UO-31 renal
50.1 µM: HS 578T breast
not listed: RXF 393 renal | A498 renal | OVCAR-8 ovarian
> 100 µM: all other assays above

CCOC(=O)c1c(N)sc2c1C(C(=O)OCC)CCCC2 (stereo not drawn)
78.3 µM: T-47D breast
75.8 µM: A498 renal
not listed: DU-145 prostate | NCI-H522 lung | LOX IMVI melanoma | SF-295 CNS | OVCAR-3 ovarian | SF-268 CNS | NCI/ADR-RES ovarian | SK-OV-3 ovarian | OVCAR-4 ovarian | MDA-MB-435 | CCRF-CEM leukemia | SF-539 CNS | CAKI-1 renal
> 100 µM: all other assays above

C=C(C)C1CC(=O)C(C)=C(O)C1 (stereo not drawn)
not listed: RXF 393 renal | HOP-92 NSCLC | OVCAR-3 ovarian | A498 renal | RPMI-8226 leukemia | MDA-MB-435
> 100 µM: all other assays above

O=S(=O)(Nc1nc2ccccc2nc1N1CCCCCC1)c1ccccc1
57.1 µM: NCI-H522 lung
49.9 µM: M14 melanoma
83.9 µM: HS 578T breast
95.7 µM: SF-539 CNS
33.4 µM: SK-MEL-2 melanoma
84.5 µM: HOP-62 NSCLC
65.3 µM: SW-620 colon
37.4 µM: HOP-92 NSCLC
77.4 µM: PC-3 prostate
99.2 µM: UACC-257 melanoma
33.9 µM: UO-31 renal
52.9 µM: UACC-62 melanoma
50.1 µM: BT-549 breast
44.2 µM: NCI-H23 lung | MOLT-4 leukemia
75.1 µM: HL-60(TB) leukemia
36.5 µM: OVCAR-3 ovarian
89.6 µM: SK-OV-3 ovarian
57.5 µM: RXF 393 renal
31.9 µM: HCC-2998 colon
36.4 µM: OVCAR-4 ovarian
70 µM: SF-295 CNS
33.5 µM: NCI-H460 lung
86.1 µM: SNB-75 CNS
45 µM: HCT-15 colon
40 µM: TK-10 renal
29.5 µM: SK-MEL-5 melanoma
86.7 µM: ACHN renal
48.8 µM: U251 CNS
64.6 µM: MDA-MB-435
52 µM: KM12 colon
not listed: A498 renal
> 100 µM: all other assays above
